Tested on: Human Leukemia Cell K562
Assay: Inhibitory effects on Human Leukemia Cell K562 (MTT)
Assay type: cell-based
Conditions: K562 cells, 72 h~120 h
Experimental: K562 cells were seeded in RPMI1640 cell culture solution containing 10% of fetal calf serum (supplemented with 100 ku/L of penicillin and streptomycin each). Culture dish was placed in the cell incubator under 5% of CO2 at 37° C. The culture solution was centrifuged and replaced every 2-3 days to passage and collect cells.
Cells in logarithmic growth phase were formulated into the cell suspensions at the required concentration with RPMI1640 culture solution containing 10% fetal calf serum. The resulting mixture was added to 96-wells cell culture plate at 3,000 cells per well (100 μl); after 12 hours of culture, to each well was added different amount of stock solution. The final concentrations of the samples are 100 μg/ml, 10 μg/ml, 1 μg/ml, […], and 0.01 μg/ml respectively in triplicate. After 72 h˜120 h, supernatant was discarded. To each well was added […] fresh serum-free culture solution containing 5 mg/ml blue tetrazolium (MTT). After culturing for 4 hours at 37° C., the mixture was centrifuged at 3000 rpm/min and the supernatant was discarded. Formazan was dissolved with 200 μl DMSO. After vortex oscillation for 1 min, absorbance value (OD-value) was measured on microplate reader at the wavelength of 570/450 nm. Inhibition ratio=(control group OD-value−drug group OD-value)/control group OD-value×100%.

IC50 (Homo sapiens) [nM] | IC50 [nM] | Compound
2 to 20 | – | Cc1ccc(NC(=O)c2ccc(CN3CCCN(C)CC3)c(C(F)(F)F)c2)cc1NC(=O)/C=C/c1cccnc1 [compound 25, N-(4-methyl-3-(3-(pyridin-3-yl)acrylamido)phenyl)-4-((4-methyl-1,4-homopiperazin-1-yl)methyl)-3-(trifluoromethyl)benzamide]
2 to 20 | – | Cc1ccc(NC(=O)c2ccc(CN3CCN(C)CC3)c(Br)c2)cc1NC(=O)/C=C/c1cccnc1 [compound 26, N-(4-methyl-3-(3-(pyridin-3-yl)acrylamido)phenyl)-4-((4-dimethylpiperazin-1-yl)methyl)-3-bromobenzamide]
< 1 | – | Cc1ccc(NC(=O)c2cc(C(F)(F)F)cc(C(F)(F)F)c2)cc1NC(=O)/C=C/c1cncnc1 [compound 31, N-(4-methyl-3-(3-(pyrimidin-5-yl)acrylamido)phenyl)-3,5-bis-(trifluoromethyl)benzamide]
< 1 | – | Cc1ccc(NC(=O)c2ccc(C)c(C(F)(F)F)c2)cc1NC(=O)/C=C/c1cncnc1 [compound 32, N-(4-methyl-3-(3-(pyrimidin-5-yl)acrylamido)phenyl)-4-methyl-3-(trifluoromethyl)benzamide]
< 1 | – | Cc1ccc(NC(=O)c2cc(F)cc(C(F)(F)F)c2)cc1NC(=O)/C=C/c1cncnc1 [compound 33, N-(4-methyl-3-(3-(pyrimidin-5-yl)acrylamido)phenyl)-5-fluoro-3-(trifluoromethyl)benzamide]
< 1 | – | Cc1ccc(NC(=O)c2ccc(CN3CCN(C)CC3)c(C(F)(F)F)c2)cc1NC(=O)/C=C/c1cncnc1 [compound 39, N-(4-methyl-3-(3-(pyrimidin-5-yl)acrylamido)phenyl)-4-((4-methylpiperazin-1-yl)methyl)-3-(trifluoromethyl)benzamide]
< 1 | – | Cc1ccc(NC(=O)c2ccc(CN3CC[C@@H](N(C)C)C3)c(C(F)(F)F)c2)cc1NC(=O)/C=C/c1cncnc1 [compound 42, N-(4-methyl-3-(3-(pyrimidin-5-yl)acrylamido)phenyl)-4-(((R)-3-(dimethylamino)pyrrolidin-1-yl)methyl)-3-(trifluoromethyl)benzamide]
< 1 | – | Cc1ccc(NC(=O)c2ccc(CN3CCC(N(C)C)C3)c(C(F)(F)F)c2)cc1NC(=O)/C=C/c1cncnc1 [compound 43, N-(4-methyl-3-(3-(pyrimidin-5-yl)acrylamido)phenyl)-4-(((S)-3-(dimethylamino)pyrrolidin-1-yl)methyl)-3-(trifluoromethyl)benzamide]
– | < 1 | Cc1ccc(NC(=O)c2ccc(CN3CCC(N(C)C)C3)c(C(F)(F)F)c2)cc1NC(=O)/C=C/c1cncnc1 (stereo not drawn) [compound 44, N-(4-methyl-3-(3-(pyrimidin-5-yl)acrylamido)phenyl)-4-((3-(dimethylamino)pyrrolidin-1-yl)methyl)-3-(trifluoromethyl)benzamide]
2 to 20 | – | Cc1ccc(C(=O)Nc2ccc(F)c(Cl)c2)cc1NC(=O)/C=C/c1cccnc1 [compound 50, N-(3-chloro-4-fluorophenyl)-4-methyl-3-(3-(pyridin-3-yl)acrylamido)benzamide]
< 2 | – | Cc1ccc(C(=O)Nc2cccc(C(F)(F)F)c2)cc1NC(=O)/C=C/c1cccnc1 [compound 51, N-(3-(trifluoromethyl)phenyl)-4-methyl-3-(3-(pyridin-3-yl)acrylamido)benzamide]
< 2 | – | Cc1ccc(C(=O)Nc2ccc(Br)cc2F)cc1NC(=O)/C=C/c1cccnc1 [compound 52, N-(4-bromo-2-fluorophenyl)-4-methyl-3-(3-(pyridin-3-yl)acrylamido)benzamide]
< 1 | – | Cc1ccc(C(=O)Nc2ccc(OC(F)(F)F)cc2)cc1NC(=O)/C=C/c1cccnc1 [compound 53, N-(4-(trifluoromethoxy)phenyl)-4-methyl-3-(3-(pyridin-3-yl)acrylamido)benzamide]
< 2 | – | Cc1cn(-c2ccc(NC(=O)c3ccc(C)c(NC(=O)/C=C/c4cccnc4)c3)cc2C(F)(F)F)cn1 [compound 55, N-(4-(4-methyl-1H-imidazol-1-yl)-3-(trifluoromethyl)phenyl)-4-methyl-3-(3-(pyridin-3-yl)acrylamido)benzamide]
2 to 20 | – | Cc1ccc(C(=O)Nc2ccc(Cl)c(Cl)c2)cc1NC(=O)/C=C/c1cccnc1 [compound 56, N-(3,4-dichlorophenyl)-4-methyl-3-(3-(pyridin-3-yl)acrylamido)benzamide]
2 to 20 | – | Cc1ccc(C(=O)Nc2cc(C(F)(F)F)ccc2Cl)cc1NC(=O)/C=C/c1cccnc1 [compound 57, N-(2-chloro-5-(trifluoromethyl)phenyl)-4-methyl-3-(3-(pyridin-3-yl)acrylamido)benzamide]
< 1 | – | Cc1ccc(C(=O)Nc2ccc(Cl)c(C(F)(F)F)c2)cc1NC(=O)/C=C/c1cccnc1 [compound 58, N-(4-chloro-3-(trifluoromethyl)phenyl)-4-methyl-3-(3-(pyridin-3-yl)acrylamido)benzamide]

More lines, now with the values behind:

Compound | IC50 (Homo sapiens) [nM] | IC50 [nM]
Cc1ccc(C(=O)Nc2ccc(C)c(NC(=O)/C=C/c3cccnc3)c2)cc1 [compound 1, N-(4-methyl-3-(3-(pyridin-3-yl)acrylamido)phenyl)-4-methylbenzamide] | < 2.7 | –
Cc1ccc(NC(=O)c2ccc(F)cc2)cc1NC(=O)/C=C/c1cccnc1 [compound 2, N-(4-methyl-3-(3-(pyridin-3-yl)acrylamido)phenyl)-4-fluoro benzamide] | < 2.7 | –
Cc1ccc(NC(=O)c2ccc(F)cc2F)cc1NC(=O)/C=C/c1cccnc1 [compound 3, N-(4-methyl-3-(3-(pyridin-3-yl)acrylamido)phenyl)-2,4-difluoro benzamide] | < 2.5 | –
Cc1ccc(NC(=O)c2ccc(Cl)cc2Cl)cc1NC(=O)/C=C/c1cccnc1 [compound 4, N-(4-methyl-3-(3-(pyridin-3-yl)acrylamido)phenyl)-2,4-dichloro benzamide] | 2 to 20 | –
Cc1ccc(NC(=O)c2cc(C(F)(F)F)cc(C(F)(F)F)c2)cc1NC(=O)/C=C/c1cccnc1 [compound 5, N-(4-methyl-3-(3-(pyridin-3-yl)acrylamido)phenyl)-3,5-bis-(trifluoromethyl)benzamide] | 1 to 20 | –
Cc1ccc(NC(=O)c2ccc(C)c(C(F)(F)F)c2)cc1NC(=O)/C=C/c1cccnc1 [compound 7, N-(4-methyl-3-(3-(pyridin-3-yl)acrylamido)phenyl)-3-(rifluoromethyl)-4-methyl benzamide] | < 1 | –
Cc1ccc(NC(=O)c2cc(F)cc(C(F)(F)F)c2)cc1NC(=O)/C=C/c1cccnc1 [compound 10, N-(4-methyl-3-(3-(pyridin-3-yl)acrylamido)phenyl)-3-fluoro-5-(trifluoromethyl)benzamide] | < 1 | –
Cc1ccc(NC(=O)c2ccc(CN3CCN(C)CC3)cc2)cc1NC(=O)/C=C/c1cccnc1 [compound 11, N-(4-methyl-3-(3-(pyridin-3-yl)acrylamido)phenyl)-4-((4-methylpiperazin-1-yl)methyl)benzamide] | < 2 | –
Cc1ccc(NC(=O)c2ccc(CN3C[C@@H](C)N[C@@H](C)C3)cc2)cc1NC(=O)/C=C/c1cccnc1 [compound 12] | < 5 | –
CCN1CCN(Cc2ccc(C(=O)Nc3ccc(C)c(NC(=O)/C=C/c4cccnc4)c3)cc2)CC1 [compound 13, N-(4-methyl-3-(3-(pyridin-3-yl)acrylamido)phenyl)-4-((4-ethylpiperazin-1-yl)methyl)benzamide] | 2 | –
Cc1ccc(NC(=O)c2ccc(CN3CCN(C)CC3)c(C(F)(F)F)c2)cc1NC(=O)/C=C/c1cccnc1 [compound 19, N-(4-methyl-3-(3-(pyridin-3-yl)acrylamido)phenyl)-4-((4-methylpiperazin-1-yl)methyl)-3-(trifluoromethyl)benzamide] | < 1 | –
CCN1CCN(Cc2ccc(C(=O)Nc3ccc(C)c(NC(=O)/C=C/c4cccnc4)c3)cc2C(F)(F)F)CC1 [compound 20, N-(4-methyl-3-(3-(pyridin-3-yl)acrylamido)phenyl)-4-((4-ethylpiperazin-1-yl)methyl)-3-(trifluoromethyl)benzamide] | < 1 | –
Cc1ccc(NC(=O)c2ccc(CN3CCOCC3)c(C(F)(F)F)c2)cc1NC(=O)/C=C/c1cccnc1 [compound 21, N-(4-methyl-3-(3-(pyridin-3-yl)acrylamido)phenyl)-4-(morpholin-4-ylmethyl)-3-(trifluoromethyl)benzamide] | 2 | –
Cc1ccc(NC(=O)c2ccc(CN3CC[C@@H](N(C)C)C3)c(C(F)(F)F)c2)cc1NC(=O)/C=C/c1cccnc1 [compound 22, N-(4-methyl-3-(3-(pyridin-3-yl)acrylamido)phenyl)-4-(((R)-3-(dimethylamino)pyrrolidin-1-yl)methyl)-3-(trifluoromethyl)benzamide] | < 1 | –
Cc1ccc(NC(=O)c2ccc(CN3CCC(N(C)C)C3)c(C(F)(F)F)c2)cc1NC(=O)/C=C/c1cccnc1 [compound 23, N-(4-methyl-3-(3-(pyridin-3-yl)acrylamido)phenyl)-4-(((S)-3-(dimethylamino)pyrrolidin-1-yl)methyl)-3-(trifluoromethyl)benzamide] | < 1 | –
Cc1ccc(NC(=O)c2ccc(CN3CCC(N(C)C)C3)c(C(F)(F)F)c2)cc1NC(=O)/C=C/c1cccnc1 (stereo not drawn) [compound 24, N-(4-methyl-3-(3-(pyridin-3-yl)acrylamido)phenyl)-4-((3-(dimethylamino)pyrrolidin-1-yl)methyl)-3-(trifluoromethyl)benzamide] | – | < 1
